Experimental data as given in patent US9527851B2, “Pyrrole six-membered heteroaryl ring derivative, preparation method thereof, and medicinal uses thereof” (Jiangsu Hengrui Medicine Co., Ltd., priority 2011, dated 2016).

Tests used:
JAK1 kinase = JAK1 kinase (Homo sapiens (Human), UniProt P23458); assay: Assay for inhibiting JAK1 kinase (in vitro kinase assay, HRP anti-phosphotyrosine antibody/TMB absorbance); type: biochemical; details: 20 μM ATP, 50 minutes at room temperature; read-out: IC50 (JAK1/Bio)
Protocol: In vitro activity of compounds of the present invention for inhibiting JAK1 kinase was determined by the following method.
IC50 values of test compounds was calculated from the data of the test compounds in inhibiting the activity of JAK1 kinase at different concentrations.

[1] = Pharmacokinetics assay in rats, intragastric administration, plasma by LC/MS/MS; type: in vivo, Sprague-Dawley (SD) rats; details: SD rats, 10 mg/kg
Protocol: Rats were used as test animals. […] The pharmacokinetic behavior of the compounds of the present invention was studied and evaluated in rats.
56 Healthy adult Sprague-Dawley (SD) rats, half male and half female, purchased from SINO-BRITSH SIPPR/BK LAB.
The appropriate amount of test compounds were weighed and mixed with 1.0 mL of dimethyl sulfoxide to prepare a 1.0 mg/mL suspension.
After an overnight fast, SD rats were administered intragastrically at a dose of 10.0 mg/kg and an administration volume of 10 mL/kg.
The plasma samples were stored at −20° C. The rats were fed 2 hours after administration.
Content determination of the test compounds in rat plasma after intragastrically administering at different concentrations: 50 μL of rat plasmas taken at various time points after administration were mixed with 50 μL of internal standard solution and 100 μL of methanol and mixed for 3 minutes by a vortexer. The mixture was centrifuged for 10 minutes at 13,500 rpm. 10 μL of the supernatant was taken from the plasma sample and analyzed by LC-MS/MS.
Pharmacokinetic Parameters of the compounds of the present invention were shown as follows: […]

JAK1 kinase, sequence (P23458 whole entry): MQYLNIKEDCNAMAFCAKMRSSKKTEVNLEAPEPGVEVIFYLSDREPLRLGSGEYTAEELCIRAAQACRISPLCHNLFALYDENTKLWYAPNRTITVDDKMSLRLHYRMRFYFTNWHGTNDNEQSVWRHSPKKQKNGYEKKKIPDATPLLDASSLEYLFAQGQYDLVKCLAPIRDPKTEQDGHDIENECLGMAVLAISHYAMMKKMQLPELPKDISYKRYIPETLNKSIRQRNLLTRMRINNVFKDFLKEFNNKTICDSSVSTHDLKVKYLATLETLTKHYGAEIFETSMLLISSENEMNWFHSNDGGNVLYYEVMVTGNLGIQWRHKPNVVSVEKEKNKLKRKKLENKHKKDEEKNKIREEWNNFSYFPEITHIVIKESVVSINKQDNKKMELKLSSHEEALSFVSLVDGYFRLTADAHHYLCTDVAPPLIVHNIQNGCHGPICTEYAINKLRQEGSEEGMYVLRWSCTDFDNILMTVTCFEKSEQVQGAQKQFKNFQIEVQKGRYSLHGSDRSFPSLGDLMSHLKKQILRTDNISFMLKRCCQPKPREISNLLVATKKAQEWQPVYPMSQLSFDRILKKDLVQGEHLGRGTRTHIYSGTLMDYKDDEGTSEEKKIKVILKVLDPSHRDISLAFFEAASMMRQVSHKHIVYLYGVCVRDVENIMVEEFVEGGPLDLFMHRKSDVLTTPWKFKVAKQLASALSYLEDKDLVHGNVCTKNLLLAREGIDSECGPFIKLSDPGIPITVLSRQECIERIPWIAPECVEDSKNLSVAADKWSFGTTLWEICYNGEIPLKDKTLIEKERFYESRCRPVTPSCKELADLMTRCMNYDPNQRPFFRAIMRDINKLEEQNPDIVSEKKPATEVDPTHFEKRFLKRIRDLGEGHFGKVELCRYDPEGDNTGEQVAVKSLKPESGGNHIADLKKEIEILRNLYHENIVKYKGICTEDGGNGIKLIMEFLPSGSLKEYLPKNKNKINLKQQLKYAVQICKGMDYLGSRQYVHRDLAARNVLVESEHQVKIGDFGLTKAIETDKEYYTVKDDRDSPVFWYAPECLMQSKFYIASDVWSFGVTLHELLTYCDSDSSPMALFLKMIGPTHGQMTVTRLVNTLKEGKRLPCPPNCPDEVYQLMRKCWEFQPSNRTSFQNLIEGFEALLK

CN(c1ncnc2[nH]ccc12)[C@H]1C[C@@H]2CN(C(=O)Nc3ccn(C)n3)C[C@@H]2C1 [Example 104, (3aR,5S,6aS)-5-(methyl(7H-pyrrolo[2,3-d]pyrimidin-4-yl)amino)-N-(1-methyl-1H-pyrazol-3-yl)hexahydrocyclopenta[c]pyrrole-2(1H)-carboxamide]
IC50 (JAK1 kinase): 109 nM

CN(c1ncnc2[nH]ccc12)[C@H]1C[C@@H]2CN(C(=O)Nc3nc(O)ns3)C[C@@H]2C1 [Example 156, (3aR,5S,6aS)-N-(3-hydroxy-1,2,4-thiadiazol-5-yl)-5-(methyl(7H-pyrrolo[2,3-d]pyrimidin-4-yl)amino)hexahydrocyclopenta[c]pyrrole-2(1H)-carboxamide]
IC50 (JAK1 kinase): 171 nM

CC[C@H](O)C(=O)N1C[C@H]2C[C@H](N(C)c3ncnc4[nH]ccc34)C[C@H]2C1 [Example 93, (S)-2-hydroxy-1-((3aR,5R,6aS)-5-(methyl(7H-pyrrolo[2,3-d]pyrimidin-4-yl)amino)hexahydrocyclopenta[c]pyrrol-2(1H)-yl)butan-1-one]
IC50 (JAK1 kinase): 70 nM

CN(c1ncnc2[nH]ccc12)[C@H]1C[C@@H]2CN(C(=O)Cc3nn[nH]n3)C[C@@H]2C1 [Example 85, 1-((3aR,5S,6aS)-5-(methyl(7H-pyrrolo[2,3-d]pyrimidin-4-yl)amino)hexahydrocyclopenta[c]pyrrol-2(1H)-yl)-2-(2H-tetrazol-5-yl)ethanone]
IC50 (JAK1 kinase): 80 nM

CN(c1ncnc2[nH]ccc12)[C@H]1C[C@@H]2CN(C(=O)C(C)(C)O)C[C@@H]2C1 [Example 83, 2-hydroxy-2-methyl-1-((3aR,5S,6aS)-5-(methyl(7H-pyrrolo[2,3-d]pyrimidin-4-yl)amino)hexahydrocyclopenta[c]pyrrol-2(1H)-yl)propan-1-one]
IC50 (JAK1 kinase): 50 nM

Cc1cnc(NC(=O)N2C[C@H]3C[C@H](N(C)c4ncnc5[nH]ccc45)C[C@H]3C2)s1 [Example 117, (3aR,5S,6aS)-5-(methyl(7H-pyrrolo[2,3-d]pyrimidin-4-yl)amino)-N-(5-methylthiazol-2-yl)hexahydrocyclopenta[c]pyrrole-2(1H)-carboxamide]
IC50 (JAK1 kinase): 95 nM

CN(c1ncnc2[nH]ccc12)[C@H]1C[C@@H]2CN(S(=O)(=O)C3CC3)C[C@@H]2C1 [Example 15, N-((3aR,5S,6aS)-2-(Cyclopropylsulfonyl)octahydrocyclopenta[c]pyrrol-5-yl)-N-methyl-7H-pyrrolo[2,3-d]pyrimidin-4-amine]
IC50 (JAK1 kinase): 80 nM

CC(=O)N1C[C@H]2C[C@H](N(C)c3ncnc4[nH]ccc34)C[C@H]2C1 [Example 11, 1-((3aR,5S,6aS)-5-(Methyl(7H-pyrrolo[2,3-d]pyrimidin-4-yl)amino)hexahydrocyclopenta[c]pyrrol-2(1H)-yl)ethanone]
IC50 (JAK1 kinase): 33 nM

CNC(=O)N1C[C@H]2C[C@H](N(C)c3ncnc4[nH]ccc34)C[C@H]2C1 [Example 80, (3aR,5S,6aS)-N-methyl-5-(methyl(7H-pyrrolo[2,3-d]pyrimidin-4-yl)amino)hexahydrocyclopenta[c]pyrrole-2(1H)-carboxamide]
IC50 (JAK1 kinase): 127 nM

Cc1cc(NC(=O)N2C[C@H]3C[C@H](N(C)c4ncnc5[nH]ccc45)C[C@H]3C2)sn1 [Example 119, (3aR,5S,6aS)-5-(methyl(7H-pyrrolo[2,3-d]pyrimidin-4-yl)amino)-N-(3-methylisothiazol-5-yl)hexahydrocyclopenta[c]pyrrole-2(1H)-carboxamide]
IC50 (JAK1 kinase): 48 nM

CN(c1ncnc2[nH]ccc12)[C@H]1C[C@@H]2CN(C(=O)[C@H](O)c3ccccc3)C[C@@H]2C1 [Example 81, (R)-2-hydroxy-1-((3aR,5S,6aS)-5-(methyl(7H-pyrrolo[2,3-d]pyrimidin-4-yl)amino)hexahydrocyclopenta[c]pyrrol-2(1H)-yl)-2-phenylethanone]
IC50 (JAK1 kinase): 113 nM

CN(c1ncnc2[nH]ccc12)[C@H]1C[C@@H]2CN(C(=O)Nc3nc(OCC(C)(C)O)ns3)C[C@@H]2C1 [Example 99, (3aR,5S,6aS)-N-(3-(2-hydroxy-2-methylpropoxy)-1,2,4-thiadiazol-5-yl)-5-(methyl(7H-pyrrolo[2,3-d]pyrimidin-4-yl)amino)hexahydrocyclopenta[c]pyrrole-2(1H)-carboxamide]
Vd/F ([1]; both sexes, Sprague-Dawley, rat, plasma, po, read-out: Apparent Distribution Volume Vz/F): 2.76 ± 1.53 L/kg | AUC ([1]; both sexes, Sprague-Dawley, rat, plasma, po, read-out: Area Under Curve AUC): 14900 ± 10400 ng·h/mL | CL/F ([1]; both sexes, Sprague-Dawley, rat, plasma, po, read-out: Clearance CL/F): 18.3 ± 14.2 mL/min/kg | half-life ([1]; both sexes, Sprague-Dawley, rat, plasma, po, read-out: Half-Life t½ (converted)): 2.1 ± 0.73 h | MRT ([1]; both sexes, Sprague-Dawley, rat, plasma, po, read-out: Mean Residence Time MRT): 3.81 ± 0.82 h | Cmax ([1]; both sexes, Sprague-Dawley, rat, plasma, po, read-out: Plasma Conc. Cmax): 2670 ± 1450 ng/mL

CN(c1ncnc2[nH]ccc12)[C@H]1C[C@@H]2CN(CCC#N)C[C@@H]2C1 [Example 27, 3-((3aR,5S,6aS)-5-(Methyl(7H-pyrrolo[2,3-d]pyrimidin-4-yl)amino)hexahydrocyclopenta[c]pyrrol-2(1H)-yl)propanenitrile]
IC50 (JAK1 kinase): 30 nM

CN(c1ncnc2[nH]ccc12)[C@H]1C[C@@H]2CN(C(=O)OC(C)(C)C)C[C@@H]2C1 [Example 5, (3aR,5S,6aS)-tert-butyl 5-(methyl(7H-pyrrolo[2,3-d]pyrimidin-4-yl)amino)hexahydro cyclopenta[c]pyrrole-2(1H)-carboxylate]
IC50 (JAK1 kinase): 30 nM

COc1cncc(NC(=O)N2C[C@H]3C[C@H](N(C)c4ncnc5[nH]ccc45)C[C@H]3C2)c1 [Example 109, (3aR,5S,6aS)-N-(5-methoxypyridin-3-yl)-5-(methyl(7H-pyrrolo[2,3-d]pyrimidin-4-yl)amino)hexahydrocyclopenta[c]pyrrole-2(1H)-carboxamide]
IC50 (JAK1 kinase): 15 nM

CN(c1ncnc2[nH]ccc12)[C@H]1C[C@@H]2CN(C(=O)CNS(C)(=O)=O)C[C@@H]2C1 [Example 21, N-(2-((3aR,5S,6aS)-5-(Methyl(7H-pyrrolo[2,3-d]pyrimidin-4-yl)amino)hexahydrocyclopenta[c]pyrrol-2(1H)-yl)-2-oxoethyl)methanesulfonamide]
IC50 (JAK1 kinase): 17 nM

CN(c1ncnc2[nH]ccc12)[C@H]1C[C@@H]2CN(C(=O)C3CC3)C[C@@H]2C1 [Example 13, Cyclopropyl((3aR,5S,6aS)-5-(methyl(7H-pyrrolo[2,3-d]pyrimidin-4-yl)amino)hexahydrocyclopenta[c]pyrrol-2(1H)-yl)methanone]
IC50 (JAK1 kinase): 30 nM

CN(c1ncnc2[nH]ccc12)[C@H]1C[C@@H]2CN(C(=O)Nc3nc(C4CC4)ns3)C[C@@H]2C1 [Example 125, (3aR,5S,6aS)-N-(3-cyclopropyl-1,2,4-thiadiazol-5-yl)-5-(methyl(7H-pyrrolo[2,3-d]pyrimidin-4-yl)amino)hexahydrocyclopenta[c]pyrrole-2(1H)-carboxamide]
Apparent Distribution Volume Vz/F [1]: 18.063 ± 20.748 L/kg | Area Under Curve AUC [1]: 5997 ± 4741 ng·h/mL | Clearance CL/F [1]: 46.1 ± 35.6 mL/min/kg | Plasma Conc. Cmax [1]: 1061 ± 677 ng/mL

CCc1nsc(NC(=O)N2C[C@H]3C[C@H](N(C)c4ncnc5[nH]ccc45)C[C@H]3C2)n1 [Example 121, (3aR,5S,6aS)-N-(3-ethyl-1,2,4-thiadiazol-5-yl)-5-(methyl(7H-pyrrolo[2,3-d]pyrimidin-4-yl)amino)hexahydrocyclopenta[c]pyrrole-2(1H)-carboxamide]
Apparent Distribution Volume Vz/F [1]: 7.203 ± 8.113 L/kg | Area Under Curve AUC [1]: 9617 ± 7909 ng·h/mL | Clearance CL/F [1]: 31.9 ± 26.9 mL/min/kg | Mean Residence Time MRT [1]: 3.40 ± 0.91 h | Plasma Conc. Cmax [1]: 2071 ± 1473 ng/mL
